Experimental data published in patent US6271254A, “Pharmaceutical compositions containing R-α-lipoic acid or S-α-lipoic acid as active ingredient” (ASTA Pharma Aktiengesellschaft, priority 1989, dated 2001).

Key:
mouse = assay: acid writhing pain test in the mouse (acetic acid test); assay type: in vivo; conditions: po, per os, 50% inhibition of writhing syndrome, read-out: analgesically active ED50
Description: Acetic acid test (writhing test) in the mouse Method: In the acetic acid test after KOSTER et al. (Fed. Proc., Vol. 18, page 412 (1959)) the pain stimulus triggered by an intraperitoneal injection of 1% acetic acid. The pain reaction is expressed in the form of the characteristic stretching of the animals ("writhing syndrome") which continues at irregular time intervals form some time after injection of the acetic acid. The dose-dependent inhibition of the frequency of the stretching movement as compared to an untreated control group is expressed in percent as analgesic activity. Evaluation is by determination type the ED50 (Method of linear regression). The ED50 is the dose in mg/kg at which there is a 50% inhibition of the "writhing syndrome".

rat [1] = assay: Randall-Selitto inflammatory pain test in the rat; assay type: in vivo; conditions: po, per os; for ED50: 0.5 h, Randall-Selitto test, rat, 50% analgesic activity, read-out: analgesically effective ED50
Experimental: Randall-Selitto test (inflammatory pain in the rat)
By analogy with the method according to RANDALL and SELITTO (L. O. Randall and J. Selitto, Arch. int. Pharmacodyn. Vol. 111, pages 409-418 (1957)), rats receive subplantar injections of 0.1 ml of a 20% (in demineralized water) brewer's yeast suspension into the right back paw. 2 1/2 hours thereafter the test substances are administered and 30 minutes thereafter the pain threshold (in grams) is measured as pain in the inflamed paw, using a commercially available algesia meter. The criterion is the defense reaction shown by the animals in pulling the paw away and/or freeing themselves from the research worker's grip. The activity of the substance is measured in the form of the increase in the pain threshold as compared to an untreated control group. The course of the experiment differs from that in the original method in that the substances are only given 21/2 hours after provocation of the edema and not simultaneously therewith. In so doing the intention is to prevent the development of the edema being inhibited by a possible anti-inflammatory activity and masking or feigning analgesia.
The ED50 is determined using the linear regression method. The ED50 here is the dose in mg/kg it which mathematically there is a 50% analgesic activity.

rat [2] = assay: carragheen-induced oedema test in the rat; assay type: in vivo; conditions: for ED50: 50% inhibition of paw oedema, read-out: anti-inflammatorily active ED50
Experimental: Caragheen-induced edema test for anti-inflammatory activity:
The investigation is conducted in carragheen-induced edema of the rat paw after the method of MOERSDORF and co-workers (Arch.int.Pharmacodyn. 192, 111-127 (1971)). The anti-inflammatory activity is, for example, given as inhibition of edema in percent as compared to the untreated control group. Application is oral or intraperitoneal in all experiments. The substance is administered orally or intraperitoneally 1 hour after triggering the inflammation. The ED50 is the dose in mg/kg at which there is 50% inhibition of the paw oedema.

[3] = analgesic and anti-inflammatory activity compared with the racemate (general statement, no test named); assay type: in vivo; conditions: vs racemate
[4] = test system: human immunodeficiency virus HIV (HIV-1, HIV-2); assay: growth-inhibiting activity against retroviruses, in particular HIV (HIV-1, HIV-2); assay type: cell-based; conditions: in vitro; in words
Description: 3. Determination of reverse transcriptase in culture supernatant
4. Determination of p24 antigen in culture supernatant
In the case of the in vitro experiments the active ingredient is used, for example in benzyl alcohol as solvent.
The following substrates may, for example, be used for the in vitro investigations of the replication behavior of retroviruses, in particular HIV:
1. Virus-containing RPMI 1640 medium, for example 1X liquid 041-01875 (synthetic culture medium from Gibeo according to Moore, Gerner and Franklin, H. A. (1967), J.A.M.A. 199; 519) in a concentration of 2×10^3 -1×10^4 infectious units (PFU)/ml
2. The cell lines Jurkat Clone E6-1, Sup T1 and HeLa CT4.

[5] = acute toxicity in the mouse (method of LITCHFIELD and WILCOXON); conditions: in vivo, oral administration
Experimental: The acute toxicity of R-α-lipoic acid and S-α-lipoic acid in the mouse (expressed as the LD50 mg/kg; method of LITCHFIELD and WILCOXON, J. Pharmacol. Exp Ther. 95, 99 (1949)), is for example in excess of 100 mg/kg in the case of oral administration.

[6] = analgesic, anti-inflammatory, anti-arthrotic and cytoprotective activity in investigatory models; assay type: in vivo, mouse, rat, chicken; conditions: in words
Description: The optical isomers of α-lipoic acid display a good analgesic, anti-inflammatory, anti-arthrotic and cytoprotective activity in, for example, the following investigatory models:
MgSO4 writhing test in the mouse according to GYIRES et al. (Arch.int.pharmacodyn.therap. 267, 131-140 (1984))
Adjuvans arthritis in the rat according to NEWBOULD (Brit.J.Pharmacol. 21, 127-136 (1963))
TPA- or arachidonic acid-induced mouse ear oedema according to YOUNG et al. (J.Invest.Dermatol. 80, 48-52 (1983))
Na-mono-iodazetate-induced arthrosis in rats or chickens according to KALBHEN in: Arthrosis deformans, Eular-Verlag, Basel/Switzerland, 1982
TPA-induced arthrosis in rats according to WEISCHER (Agents and Actions 23, 1/2 (1988))
Intestinal ulcerations in rats according to DEL SOLDATO (Agents and Actions 16, 393-396 (1985))
Colitis-model in the rat according to WEISCHER at al (Agents and Actions, vol. 26, 1/2, page 222 to 223, (1989))
Ethanol-ulcer model in the rat (determination for example of a cytoprotective activity).

[7] = po, carragheen-induced oedema, rat, per os

| SMILES | ED50 (mouse) [mg/kg] | ED50 (rat [1]) [mg/kg] | ED50 (rat [2]; [7]) [mg/kg] | minimal effective dose (rat [2]; Rattus norvegicus, po, carragheen-induced oedema test, per os, read-out: minimum anti-inflammatorily effective dose) [mg/kg] | anti-inflammatory activity superior to that of racemic α-lipoic acid (factor) (rat [2]; carragheen-induced oedema, rat, peroral application) | anti-inflammatory activity stronger than that of the racemate (factor) [3] [factor] | growth-inhibiting activity against retroviruses, in particular HIV (HIV-1, HIV-2) [4] | LD50 [5] [mg/kg] | antinociceptive and cytoprotective activity (beside anti-inflammatory and anti-arthritic main activity) [6] | minimal effective dose (rat [1]; Rattus norvegicus, Randall-Selitto pain test, read-out: minimum analgesically effective dose) [mg/kg] | anti-inflammatory and cytoprotective activity (beside analgesic main activity) [6] |
| --- | --- | --- | --- | --- | --- | --- | --- | --- | --- | --- | --- |
| O=C(O)CCCCC1CCSS1 (racemic) [racemate, 1,2-dithiacyclopentane-3-valeric acid, reference compound] | 51.3 | 45.9 | 49.7 |  |  |  |  |  |  |  |  |
| O=C(O)CCCC[C@@H]1CCSS1 [R-α-lipoic acid] |  |  | 4.9 | 1 | ≥ 10 | 10 | growth-inhibiting activity | > 100 | to a lesser extent |  |  |
| O=C(O)CCCC[C@H]1CCSS1 [S-α-lipoic acid] | 10.2 | 7.5 |  |  |  |  | growth-inhibiting activity | > 100 |  | 1 | to a lesser extent |
